For 15 molecules, TGI and GI50 results are on record in PubChem BioAssay (NCI).

Several values for one entry are separate records, joined by “and”; a condition that tells them apart may be missing. Equal entries are not always repeated.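 Compound exposure: 48 hours, 5 concentrations, 96-well plates. Here, GI50 denotes the concentration required for 50% inhibition of growth. The concentration for full growth arrest is given as TGI.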

Among the test systems are UACC-257 melanoma; SR leukemia; DMS 273 small cell lung; KM20L2 colon; HOP-62 NSCLC; M14 melanoma; LXFL 529 NSCLC; HS 578T breast; T-47D breast.
Assay in all cases: growth of human tumour cells (NCI), 48 h

For the molecule `Cc1nc2c(n1CC(C)(C)C)C(=O)c1ccccc1C2=O`, the TGI in the assay with UACC-257 melanoma, in the assay with SR leukemia, with DMS 273 small cell lung, in the assay with KM20L2 colon, in the assay on HOP-62 NSCLC and in the assay with M14 melanoma was greater than 100 µM in each case. The same molecule had a TGI in the assay with LXFL 529 NSCLC greater than 100 µM.
In the case of `O=C(C(=O)c1ccc(Cc2ccc(C(=O)C(=O)c3ccccc3)cc2)cc1)c1ccccc1`, the TGI in the assay with UACC-257 melanoma, with DMS 273 small cell lung, in the assay with KM20L2 colon, in the assay with HOP-62 NSCLC, in the assay on M14 melanoma and in the assay with LXFL 529 NSCLC was greater than 100 µM each time.
For the molecule `O=C1[C@@H](c2ccc(Cl)cc2)[C@H]2CC=C[C@H]2N1O`, the TGI with UACC-257 melanoma, in the assay with DMS 273 small cell lung, in the assay with HOP-62 NSCLC, in the assay on M14 melanoma and in the assay with LXFL 529 NSCLC was greater than 100 µM in each case.
In the case of `COC(=O)c1nc(NN)[nH]c(=O)c1CCCCCc1c(C(=O)OC)[nH]c(NN)cc1=O`, the TGI in the assay on UACC-257 melanoma was greater than 100 µM; in the assay with SR leukemia, greater than 58.9 µM; with DMS 273 small cell lung, greater than 100 µM; in the assay on KM20L2 colon it was greater than 100 µM; in the assay on HOP-62 NSCLC, greater than 100 µM; in the assay with M14 melanoma it was greater than 100 µM. Also, the TGI with LXFL 529 NSCLC was greater than 100 µM.
On to `O=[N+]([O-])c1ccc(N=Nc2c(O)[nH]c3ccc([N+](=O)[O-])cc23)cc1`, for which the TGI in the assay on UACC-257 melanoma was 59.7 µM; in the assay with SR leukemia, greater than 100 µM; in the assay on DMS 273 small cell lung, 33.6 µM; with KM20L2 colon it was 63.7 µM; in the assay on HOP-62 NSCLC, 38.3 µM; with M14 melanoma it was 38 µM. Besides, in the assay on LXFL 529 NSCLC, the TGI came to 26.4 µM.
For `COC(=O)C1=CCON(c2ccccc2)C1c1ccccc1` (centres undefined), the TGI in the assay on SR leukemia, in the assay with DMS 273 small cell lung, in the assay on KM20L2 colon, with HOP-62 NSCLC, in the assay with M14 melanoma and in the assay on LXFL 529 NSCLC was greater than 100 µM each time.
Regarding `COc1ccc([C@H]2CC(=O)N3CCCC3N2)cc1` (some centres undefined), the TGI in the assay with UACC-257 melanoma, with SR leukemia, in the assay on DMS 273 small cell lung, in the assay on KM20L2 colon, with HOP-62 NSCLC and in the assay on M14 melanoma was greater than 100 µM each time. The molecule also yielded a TGI in the assay on LXFL 529 NSCLC greater than 100 µM.
With `Cc1c(C)c2cc3c(=O)ccoc3c(C)c2oc1=O`, the TGI with UACC-257 melanoma, in the assay with KM20L2 colon, in the assay with HOP-62 NSCLC, in the assay with M14 melanoma and with LXFL 529 NSCLC was greater than 100 µM in each case.
Regarding `Clc1ccc([O][In]([O]c2ccc(Cl)cn2)[O]c2ccc(Cl)cn2)nc1`, the GI50 in the assay with UACC-257 melanoma, in the assay with SR leukemia, with DMS 273 small cell lung, with KM20L2 colon and in the assay with M14 melanoma was greater than 100 µM in each case. Also, the TGI in the assay with UACC-257 melanoma, in the assay on SR leukemia, in the assay on DMS 273 small cell lung, in the assay with KM20L2 colon and in the assay on M14 melanoma was greater than 100 µM each time.
For `C[n+]1cc2c3c(ccc2c2ccc4cc5c(cc4c21)OCO5)OCO3`, the GI50 with HS 578T breast was 2.11 µM; with UACC-257 melanoma it was 1.18 µM; with SR leukemia it was 0.258 µM; in the assay with T-47D breast it was 1.42 µM; with HOP-62 NSCLC, 0.349 µM; with M14 melanoma, 0.412 µM. Further, the TGI in the assay on HS 578T breast is greater than 24.6 µM; with UACC-257 melanoma it was 2.43 µM; with T-47D breast, 3.13 µM; in the assay with HOP-62 NSCLC, 1.44 µM; in the assay with M14 melanoma, 1.6 µM.
As to `CC(CO)[C@H]1OC(=O)C=C2[C@@]13O[C@@H]3[C@H]1OC(=O)[C@@]3(C)[C@H]4O[C@H]4C[C@@]2(C)[C@@H]13` (some centres undefined), the TGI was 12.6 µM in the assay on HS 578T breast; greater than 26.1 µM in the assay with UACC-257 melanoma; 0.982 µM in the assay on SR leukemia; greater than 46.1 µM in the assay on T-47D breast; greater than 100 µM in the assay with HOP-62 NSCLC; greater than 22.8 µM with M14 melanoma.
As to `C[C@]12CC[C@@H]3c4ccc(O)c([N+](=O)[O-])c4CC[C@H]3[C@@H]1CC[C@@H]2NS(=O)(=O)c1ccc(C(F)(F)F)cc1`, the GI50 in the assay with HS 578T breast was 2.14 µM; in the assay with UACC-257 melanoma, 1.87 µM; in the assay with SR leukemia it was 1.65 µM; with T-47D breast, 2.45 µM; in the assay on HOP-62 NSCLC it was 1.83 µM; with M14 melanoma, 1.92 µM. Moreover, the TGI stood at 6.56 µM in the assay with HS 578T breast; 4.74 µM in the assay with UACC-257 melanoma; 4.14 µM in the assay on SR leukemia; 7.22 µM in the assay on T-47D breast; 3.58 µM in the assay with HOP-62 NSCLC; 3.91 µM with M14 melanoma.
In the case of `CC(C)n1c(/C=C/[C@@H](O)C[C@@H](O)CC(=O)O)c(-c2ccc(F)cc2)c2ccccc21`, the GI50 in the assay with HS 578T breast was 4.29 µM and 4.73 µM; with UACC-257 melanoma, 52.7 µM and 47.5 µM; in the assay on SR leukemia, 2.16 µM and 2.8 µM; in the assay on T-47D breast, 14.2 µM and 13.8 µM; with HOP-62 NSCLC, 11.4 µM and 13 µM; with M14 melanoma, 19.4 µM and 11.9 µM. In addition, the TGI in the assay with HS 578T breast was greater than 100 µM; in the assay with UACC-257 melanoma it was greater than 100 µM; with SR leukemia, greater than 61.7 µM; in the assay with T-47D breast it was greater than 100 µM; with HOP-62 NSCLC, greater than 100 µM; in the assay with M14 melanoma, greater than 100 µM.
Turning to `CCc1ccccc1NC(=O)C(=O)C(C(=O)c1ccc(OC)cc1)c1ccc(OC)cc1` (centres undefined), the TGI in the assay on UACC-257 melanoma, in the assay with DMS 273 small cell lung, with KM20L2 colon, in the assay with HOP-62 NSCLC, in the assay on M14 melanoma and in the assay on LXFL 529 NSCLC was greater than 100 µM in each case.
In the case of `S=C(N/N=C/c1cc(Cl)cc(Cl)c1)NC12CC3CC(CC(C3)C1)C2`, the GI50 in the assay on HS 578T breast is 2.16 µM; in the assay with UACC-257 melanoma, greater than 22.7 µM; in the assay with SR leukemia it was 5.02 µM; in the assay on T-47D breast it was 6.94 µM; in the assay with HOP-62 NSCLC, 2.43 µM; in the assay on M14 melanoma, 65 µM. Besides, the TGI in the assay on HS 578T breast is 7.41 µM; in the assay with UACC-257 melanoma it was greater than 100 µM; in the assay with SR leukemia, greater than 32 µM; with T-47D breast, greater than 100 µM; with HOP-62 NSCLC, 5.93 µM; with M14 melanoma, greater than 100 µM.
